# From US11020405B2, “Method for prevention or treatment of diabetic complications” (KANGWON NATIONAL UNIVERSITY UNIVERSITY-INDUSTRY COOPERATION …, priority 2017, dated 2021)
# Tests used:
# [1] = test system: retinal vessels of diabetic mice; experiment: Fluorescein angiography for mouse model (retinal vascular leakage); assay type: in vivo, C57BL/6 mice; conditions: intravitreal 2 μL of 2 mM midazolam, 2 μM cystamine or 500 mM MDC (FIGS. 16, 17)
# [2] = test system: TGase; experiment: Identification of receptor of midazolam through TGase activity analysis; assay type: cell-based, human; conditions: HRECs
# Description: With reference to FIG. 11A, the HRECs of Test Example 1 were subjected to the respective treatments below, cultured for 2 hr, treated with 1 mM 5-(biotinamido)pentylamine, incubated for 1 hr, fixed with 3.7% formaldehyde, treated with 0.2% triton X-100, treated with a blocking solution containing 138 mM NaCl, 0.1% Tween 20 and 2% BSA dissolved in a 20 mM Tris (pH 7.6) buffer, incubated for 30 min, incubated with FITC-conjugated streptavidin (1:200, v/v) for 1 hr, and then measured using confocal microscopy to thus determine the fluorescence intensity of single cells.
# As will be described below, flumazenil was used as a GABAA receptor antagonist and PK11195 was used as a TSOP receptor antagonist.
# With reference to FIG. 11B, the HRECs of Test Example 1 were treated with 0 μM, 0.01 μM, 0.1 μM, 1 μM, 10 μM, 20 μM, and 50 μM flumazenil and 0 μM, 0.01 μM, 0.1 μM, 1 μM, 3 μM, 10 μM, and 30 μM PK11195, cultured for 1 hr, treated with 20 μM midazolam, cultured for 30 min, treated with 10 ng/ml VEGF, incubated for 10 min, treated with 1 mM 5-(biotinamido)pentylamine, incubated for 1 hr, fixed with 3.7% formaldehyde, treated with 0.2% triton X-100, treated with a blocking solution containing 138 mM NaCl, 0.1% Tween 20 and 2% BSA dissolved in a 20 mM Tris (pH 7.6) buffer, incubated for 30 min, incubated with FITC-conjugated streptavidin (1:200, v/v) for 1 hr, and then measured using confocal microscopy to thus determine the fluorescence intensity of single cells.
# [3] = test system: kidneys of diabetic mice; experiment: Hyperglycemia-induced renal vascular leakage in diabetic mice (FITC-dextran); assay type: in vivo, C57BL/6 mice; conditions: 10 mg/kg midazolam intraperitoneal daily for 2 days (FIG. 20)
# Description: FIGS. 20A and 20B show the preventive effects of midazolam against hyperglycemia-induced renal vascular leakage in diabetic mice. Six-week-old male C57BL/6 mice were administered with streptozotocin (150 mg/kg body weight) to give diabetic mouse models. Two weeks after streptozotocin injection, diabetic mice were administered 10 mg/kg midazolam by intraperitoneal injection daily for 2 days, and vascular leakage was investigated. The body weight of mice were measure in normal (19.9±0.3 g), diabetic (17.7±0.3 g), and midazolam supplemented diabetic mice (17.7±0.3 g). Blood glucose levels were also monitored in normal (123.5±6.5 mg/dL), diabetic (505.0±89.0 mg/dL), and midazolam supplemented diabetic mice (500.3±63.3 mg/dL). The mice were anesthetized with 3% isoflurane, and 1.25 mg of FITC-dextran was injected into the right ventricle of each mouse and allowed to circulate for 5 min. The kidneys were dissected, fixed, and embedded in OCT compound. Cryosections of kidneys were stained with nuclear counterstaining with DAPI. Representative images of vascular leakage in kidneys are shown in additional FIG. 20A. Scale bars, 100 μm. The results of vascular leakage quantitatively analyzed by measuring the fluorescence intensity of FITC-dextran in the kidneys are shown in additional FIG. 20B. (n=4 for normal and diabetic, n=6 for diabetic+Midazolam).
structure (smiles),measurement,setting,value
Cc1ncc2n1-c1ccc(Cl)cc1C(c1ccccc1F)=NC2 [midazolam],retinal vascular leakage compared to normal mice,[1],vascular leakage was prevented
same,TGase activity (VEGF-induced) compared to control,"[2]; 20 μM midazolam 10 min then 10 ng/ml VEGF, no washing (FIG. 11A)",no significant TGase activity increase was observed
same,"TGase activity (VEGF-induced, after washing)","[2]; 20 μM midazolam 30 min, washing with serum-free medium, then 10 ng/ml VEGF (FIG. 11A)",TGase activity was increased
same,renal vascular leakage (FITC-dextran extravasation),[3],blocked by midazolam administration
